Assay results taken from patent US20250263459A1, “STABILIZED PACAP PEPTIDE” (SENJU PHARMACEUTICAL CO., LTD., priority 2019, published 2025).
Starred links: 1 amine or outer side, 2 acyl side, 3 side chain; linkers in the order of their positions; H or OH if unused. Non-standard residues stand in square brackets, D forms with d. Residues, ends and D or L forms follow the SMILES beside them. X2 = O=C([C@H](Cc1noc(=O)[nH]1)N[*:1])[*:2]; Nle = CCCC[C@H](N)C(=O)O

Experiments:
[1] = Stability test 1: survival rate of peptide in phosphate buffer (pH 7.0) after storage, HPLC; assay type: physicochemical; settings: 100 μM peptide, phosphate buffer pH 7.0, 40° C.
Protocol: The 1.0 mM peptide solutions were then diluted with phosphate buffer to 100 μM. […] The prepared peptide solutions were incubated for one month or 2 months in a 40° C. thermostatic bath to obtain stored samples.
Using the total weight of the aqueous peptide solution and storage vessel as the specimen weight, measurements were recorded as the specimen weights before storage and the specimen weights after storage under different storage conditions. The empty weight of the storage vessel was also measured, and the moisture permeability was determined by the following formula.
After stirring the standard sample and the stored samples with a vortex mixer, each peptide solution was transferred to an HPLC vial (Deactivated Qsert vial by Waters Co.). Reverse-phase HPLC (HPLC system: Prominence by Shimadzu Corp.) was conducted under the conditions shown in Table 3 below for analysis of the peptide solutions, and chromatograms were obtained.
The peak area value for the peptide in the chromatogram was calculated, and the survival rate (survival rate before correction for water) was calculated using formula (2). The survival rate after correction for water was also calculated from the survival rate before correction for water using formula (3) to take into account the permeability of the container.
Peptide solutions prepared by the same method as [Measuring sample preparation 1] for the peptides synthesized in Example 2 (peptides 13 to 16) were incubated for 2 weeks and 8 weeks in a thermostatic bath at 40° C. to obtain stored samples.
Peptide solutions prepared by the same method as [Measuring sample preparation 1] for the peptides synthesized in Example 2 (peptides 17 to 21) were incubated for 4 weeks in a thermostatic bath at 40° C. to obtain stored samples.
A peptide solution prepared by the same method as [Measuring sample preparation 1] for peptide 22 synthesized in Example 2 was incubated for 1 week and 4 weeks in a thermostatic bath at 40° C. to obtain stored samples.

[2] = 100 μM peptide, Tris buffer pH 7.0, 60° C.
Protocol: The solution was filtered with a Chromatdisk (product of Merck Millipore, Millex-GV, 0.22 μm). The filtrate was diluted to 100 μM with Tris buffer (pH 7.0) and dispensed into a tube (Protein LoBind Tube by Eppendorf Co.). The prepared peptide solutions were incubated for 1 week or 2 weeks in a 60° C. thermostatic bath to obtain stored samples. A simultaneously prepared sample among the peptide solutions that was not stored was used as a standard sample (initial sample). The standard sample and the stored samples were stored at −30° C. until sample analysis.
• Column: XSelect CSH C18 by Waters Co., 5 μm, 4.6×250 mm • Guard column: XSelect CSH C18 by Waters Co., 5 μm, 4.6×20 mm Guard Cartridge • Detection wavelength: 220 nm • Mobile phase A: 0.1% formic acid aqueous solution • Mobile phase B: 0.1% acetonitrile formate solution • Measuring time: 20 minutes • Measuring sample injection rate: 50 μL • Flow rate: 1.0 mL/min • Column temperature: 40° C. • Sample cooler: 25° C. • Mobile phase delivery: The mixing ratio of mobile phase A and mobile phase B was varied as shown in Table 14 for linear concentration gradient control.

Compound	survival rate after correction for water, 40° C. 1 week ([1]; 1 week (Table 10)) [%]	survival rate after correction for water, 40° C. 4 week ([1]; 4 weeks (Table 10)) [%]	survival rate after correction for water, 60° C. 1 week preservation [2] [%]	survival rate after correction for water, 60° C. 2 weeks preservation [2] [%]
CCCC[C@H](NC(=O)[C@H](CCC(N)=O)NC(=O)[C@H](CCCCN)NC(=O)[C@H](CCCNC(=N)N)NC(=O)[C@H](Cc1ccc(O)cc1)NC(=O)[C@H](CCCNC(=N)N)NC(=O)[C@H](CO)NC(=O)[C@H](Cc1ccc(O)cc1)NC(=O)[C@H](CO)NC(=O)[C@H](Cc1noc(=O)[nH]1)NC(=O)[C@@H](NC(=O)[C@H](Cc1ccccc1)NC(=O)[C@@H](NC(=O)CNC(=O)[C@H](Cc1noc(=O)[nH]1)NC(=O)[C@H](CO)NC(=O)[C@H](Cc1c[nH]cn1)NC(C)=O)[C@@H](C)CC)[C@@H](C)O)C(=O)N[C@@H](C)C(=O)N[C@H](C(=O)N[C@@H](CCCCN)C(=O)N[C@@H](CCCCN)C(=O)N[C@@H](Cc1ccc(O)cc1)C(=O)N[C@@H](CC(C)C)C(=O)N[C@@H](C)C(=O)N[C@@H](C)C(=O)N[C@H](C(=O)N[C@@H](CC(C)C)C(N)=O)C(C)C)C(C)C [Peptide 22, HS(50xa)GI FT(50xa)SY SRYRK QNIAVK KYLAA VL] (Ac-HS[X2]GIFT[X2]SYSRYRKQ[Nle]AVKKYLAAVL-NH2)	89.7	79.7	–	–
HSTzGIFTTzSYSRYRKQLAVKKYLAAVL [Reference Example 4]	–	–	91.7	84.8
HSTzGIFTTzSYSRYRKQLAVKKYLAAVL [Reference Example 6] (HSXGIFTXSYSRYRKQLAVKKYLAAVL; N-acetyl; C-terminal amide; Tz residues; modified PACAP peptide; MOD_RES (1)..(1) …ON; MUTAGEN (3)..(3) Xaa is amino acid wherein carboxy group of asparatic acid is substituted with tetrazole; MUTAGEN (8)..(8) Xaa is amino acid wherein carboxy group of asparatic acid is substituted with tetrazole)	–	–	98.4	92.8
HSTzGIFTTzSYSRYRKQNIAVKKYLAAVL [Reference Example 3]	–	–	91.3	82.4
HSTzGIFTTzSYSRYRKQNIAVKKYLAAVL [Reference Example 5] (HSXGIFTXSYSRYRKQXAVKKYLAAVL; N-acetyl; C-terminal amide; Tz residues; modified PACAP peptide; MOD_RES (1)..(1) …ON; MUTAGEN (3)..(3) Xaa is amino acid wherein carboxy group of asparatic acid is substituted with tetrazole; MUTAGEN (8)..(8) Xaa is amino acid wherein carboxy group of asparatic acid is substituted with tetrazole; MUTAGEN (17)..(17) Xaa is Nle)	–	–	98.1	92.9
